A short description of this series: Human HepG2 cell viability assay in 384 well format. The format is toxicity, cell-based. Also noted: dose 125 nL, time 70.5 hour; concentration not given beside the values. The conditions noted are these: HepG2 cells, read-out: Inhibition.
Turning to `CCc1cnc(CN(C)C(=O)Nc2cnc3c(c2)c(C)nn3C)s1`, the cytotoxicity at 70.5 h is -2.27%.

Turning to `CS(=O)(=O)NC1CCN(c2cccc(F)c2C#N)CC1`, the cytotoxicity at 70.5 h is -16.5%.

Take `COc1ccc2c(C)nc(N3C[C@@H](C)O[C@@H](C)C3)nc2c1`: the cytotoxicity at 70.5 h was -16.1%. As for `COC1CCN(C(=O)Cc2csc(-c3ncccn3)n2)CC1`, the cytotoxicity at 70.5 h is -3.38%. The same measure for `CC1c2cc(F)ccc2CCN1CCS(=O)(=O)C(C)C` (centres undefined): -3.51%; for `CC(C(=O)NCc1ccnc(N2CCCC2)c1)n1cccn1` (centres undefined): -10.3%. The same measure for `CS(=O)(=O)Cc1ccc(C(=O)Nc2ccc3c(c2)C(=O)NC3)cc1`: -6.71%; for `CCOC(=O)c1ccc(CNC(=O)c2ccc(C)nc2)o1`: 11%. The same measure for `CC(C)C[C@H](NC(=O)Cc1csc(-c2cccc(Cl)c2)n1)C(=O)O`: 19.2%. On to `CCNC(=O)COc1ccccc1N1CCCC(C)C1` (centres undefined), for which the cytotoxicity at 70.5 h is -1.31%.

`O=C(CN1CCCNC1=O)N(Cc1ccccc1)CC(F)F`: the cytotoxicity at 70.5 h is 1.59%.

With `Cc1cc(C[C@@H]2CCC[C@H]2NCc2cccc(F)c2F)on1`, the cytotoxicity at 70.5 h was -2.88%. The figure for `Cc1ccc2c(n1)N(CC1CC1)CCN(Cc1ccco1)C2` is 1.82%; for `CN1CCCC2(CCN(c3cccc(C#N)n3)C2)C1=O` (centres undefined) it is -8.81%; for `Cc1ccc(CC(=O)N2CCCN(Cc3nccn3C)CC2)cn1` it is -1.57%. As to `CC(C)c1ccc2c(c1)C1(CC(=O)Nc3[nH]ncc31)C(=O)N2C` (centres undefined), the cytotoxicity at 70.5 h was -19.6%. In the case of `CS(=O)(=O)N1CCC(C(=O)NCCNc2ncccn2)CC1`, the cytotoxicity at 70.5 h was -19.2%. The figure for `CS(=O)(=O)N1CC[C@]2(O)CCN(c3cc(C#N)ccn3)C[C@@H]2C1` is -11.9%; for `CC(=O)NCCC1CCCCN1S(=O)(=O)c1cccc(F)c1` (centres undefined) it is 19.6%. The figure for `Cc1nc(C)c(C)c(N(C)CCCc2nccn2C)n1` is -8.93%.

With `COc1cc(N2CCC3(CC2)CN(C)C(=O)CO3)ncn1`, the cytotoxicity at 70.5 h was determined as 16.1%. Regarding `CN1CCCC(CCC(=O)N2CCc3[nH]c(-c4ccccc4)nc3C2)C1` (centres undefined), the cytotoxicity at 70.5 h stood at 20.8%. Take `COc1cc(C)cc(C(C(=O)O)N(C)CCN2CCCC2)c1OC` (centres undefined): the cytotoxicity at 70.5 h was -2.88%. Take `CCc1cnc(C)nc1NC1CC(=O)N(CC)C1` (centres undefined): the cytotoxicity at 70.5 h is -7.16%. For the molecule `CN(C)C(=O)c1cnn2c1OCCC2`, the cytotoxicity at 70.5 h was -2.65%. For the molecule `Cc1ccc(CNCC(C)Oc2ccccn2)cc1` (centres undefined), the cytotoxicity at 70.5 h is -33.7%.

In the case of `Cc1ccc(-n2nnc(CC(=O)N3CCN(C4CC4)CC3)c2C)cc1`, the cytotoxicity at 70.5 h is -8.64%. Take `CCc1ncc(C(=O)N(C)C(C)c2ccc3c(c2)OCCO3)cn1` (centres undefined): the cytotoxicity at 70.5 h was 1.19%. Regarding `CCN1CCC(NC(=O)N(C)Cc2csc3ccccc23)CC1`, the cytotoxicity at 70.5 h was -8.41%. The same measure for `C[C@H]1C[C@H]2CN(S(=O)(=O)c3ccc(F)cc3)CC[C@@H]2O1`: -3.04%. `O=C(C1CCCO1)N1C[C@@H]2CCN(c3cnccn3)C[C@@H]2C1` (some centres undefined): the cytotoxicity at 70.5 h was -9.71%. The figure for `Cn1c(C(F)(F)F)nn(CCNC(=O)c2cnc3ccccc3n2)c1=O` is -2.86%. Regarding `CCCN1CCc2nc(SCc3ccccc3F)[nH]c(=O)c2C1`, the cytotoxicity at 70.5 h was determined as 6.37%.

Consider `CCCC(Cn1cnc(-c2ccccc2)c1-c1cncn1CC)N(C)C` (centres undefined), for which the cytotoxicity at 70.5 h is -0.815%. The figure for `Cc1ccc2oc([C@H]3CCN(Cc4ccccc4)C3)nc2c1` is 5.17%; for `Cc1nn(C)c(N(C)C)c1CNCCS(C)(=O)=O` it is 20.1%. With `CSCc1noc(C2CCC(=O)N(CCCN3CCCC3=O)C2)n1` (centres undefined), the cytotoxicity at 70.5 h was -4.64%. As to `CCc1nccc(CN2CCCC(c3nn(C)c(=O)n3CC)C2)n1` (centres undefined), the cytotoxicity at 70.5 h was -3.33%. The same measure for `Cc1nccn1C1CCCN(C(=O)c2cc3c(F)cccc3[nH]2)C1` (centres undefined): -1.56%.

For the origin of these results see ChEMBL document CHEMBL3507680, “University of Dundee, Gates Library screen for HepG2 cell viability”.
